Assay results: patent US10815229B1, “Benzenesulfonamide compounds and their use as therapeutic agents” (Xenon Pharmaceuticals Inc., priority 2016, dated 2020)

Key:
NaV1.1 = NaV1.1 (Homo sapiens (Human), UniProt P35498); assay: Sodium Influx Assay (Flux), NaV1.1; assay type: cell-based; settings: Trex HEK293 cells, ANG2 dye; arithmetic mean
NaV1.6 = NaV1.6 (Homo sapiens (Human), UniProt Q9UQD0); assay: Sodium Influx Assay (Flux), NaV1.6; settings: read-out: Flux NaV1.6 IC50; Trex HEK293 cells, ANG2 dye; arithmetic mean

(S)-2-fluoro-4-((1-(2-hydroxybenzyl)-pyrrolidin-3-yl)(methyDamino)-5-methyl-N-(thiazol-4-yl)benzenesulfonamide [Example 113]
IC50 (NaV1.1): 17.9 µM
IC50 (NaV1.6): 0.258 µM
